Source: publication PMC5333395, “Assessing histone demethylase inhibitors in cells: lessons learned” (Epigenetics & Chromatin, 2017)

What was measured:
KDM4B = biological target: T1, KDM4B (Homo sapiens, UniProt O94953); assay: AlphaScreen in vitro demethylase assay; assay type: biochemical; settings: IC50 ± SD (number of replicates)
T1 sequence (O94953 1-1096): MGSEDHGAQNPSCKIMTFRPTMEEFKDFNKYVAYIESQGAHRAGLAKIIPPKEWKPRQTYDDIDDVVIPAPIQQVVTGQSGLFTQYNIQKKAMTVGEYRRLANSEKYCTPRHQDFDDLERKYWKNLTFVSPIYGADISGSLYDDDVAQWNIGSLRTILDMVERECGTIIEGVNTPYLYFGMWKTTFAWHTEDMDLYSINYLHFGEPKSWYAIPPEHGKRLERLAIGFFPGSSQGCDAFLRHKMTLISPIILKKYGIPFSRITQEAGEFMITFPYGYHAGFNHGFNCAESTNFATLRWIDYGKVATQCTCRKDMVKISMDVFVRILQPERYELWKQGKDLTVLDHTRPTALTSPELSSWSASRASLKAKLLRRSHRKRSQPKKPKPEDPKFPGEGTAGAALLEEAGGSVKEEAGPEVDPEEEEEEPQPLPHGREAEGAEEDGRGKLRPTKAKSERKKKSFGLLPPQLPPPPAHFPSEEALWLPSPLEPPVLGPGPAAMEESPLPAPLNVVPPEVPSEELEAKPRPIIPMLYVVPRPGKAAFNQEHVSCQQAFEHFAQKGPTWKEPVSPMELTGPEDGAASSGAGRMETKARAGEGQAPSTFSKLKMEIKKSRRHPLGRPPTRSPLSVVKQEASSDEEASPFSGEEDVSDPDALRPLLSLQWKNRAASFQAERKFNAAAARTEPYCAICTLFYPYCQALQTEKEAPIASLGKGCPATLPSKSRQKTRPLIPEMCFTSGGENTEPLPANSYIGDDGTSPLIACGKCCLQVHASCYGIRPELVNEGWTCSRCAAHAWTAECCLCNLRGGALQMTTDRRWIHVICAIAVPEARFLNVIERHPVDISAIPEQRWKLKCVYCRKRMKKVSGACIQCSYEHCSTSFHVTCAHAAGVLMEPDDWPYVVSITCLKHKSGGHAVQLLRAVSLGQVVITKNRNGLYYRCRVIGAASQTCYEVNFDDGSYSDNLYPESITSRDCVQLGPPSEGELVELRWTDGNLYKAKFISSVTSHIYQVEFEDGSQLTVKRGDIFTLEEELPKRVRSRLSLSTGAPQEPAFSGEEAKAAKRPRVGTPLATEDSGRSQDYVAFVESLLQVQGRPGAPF
Protocol: IC50 values were determined as previously described. The following amendments were made to the protocol for carrying out 2-OG competition assays.

KDM5A = KDM5A (Homo sapiens, UniProt P29375); assay: High-content immunofluorescence (IF) assay, overexpressed full-length FLAG-tagged KDM in HeLa cells; assay type: cell-based; settings: HeLa cells overexpressing WT KDM5A, H3K4me3 mark, 24 h; for EC50: read-out: KDM5A, in cells, EC50 by IF assay (head: IC50)
Chain of KDM5A (P29375 whole entry): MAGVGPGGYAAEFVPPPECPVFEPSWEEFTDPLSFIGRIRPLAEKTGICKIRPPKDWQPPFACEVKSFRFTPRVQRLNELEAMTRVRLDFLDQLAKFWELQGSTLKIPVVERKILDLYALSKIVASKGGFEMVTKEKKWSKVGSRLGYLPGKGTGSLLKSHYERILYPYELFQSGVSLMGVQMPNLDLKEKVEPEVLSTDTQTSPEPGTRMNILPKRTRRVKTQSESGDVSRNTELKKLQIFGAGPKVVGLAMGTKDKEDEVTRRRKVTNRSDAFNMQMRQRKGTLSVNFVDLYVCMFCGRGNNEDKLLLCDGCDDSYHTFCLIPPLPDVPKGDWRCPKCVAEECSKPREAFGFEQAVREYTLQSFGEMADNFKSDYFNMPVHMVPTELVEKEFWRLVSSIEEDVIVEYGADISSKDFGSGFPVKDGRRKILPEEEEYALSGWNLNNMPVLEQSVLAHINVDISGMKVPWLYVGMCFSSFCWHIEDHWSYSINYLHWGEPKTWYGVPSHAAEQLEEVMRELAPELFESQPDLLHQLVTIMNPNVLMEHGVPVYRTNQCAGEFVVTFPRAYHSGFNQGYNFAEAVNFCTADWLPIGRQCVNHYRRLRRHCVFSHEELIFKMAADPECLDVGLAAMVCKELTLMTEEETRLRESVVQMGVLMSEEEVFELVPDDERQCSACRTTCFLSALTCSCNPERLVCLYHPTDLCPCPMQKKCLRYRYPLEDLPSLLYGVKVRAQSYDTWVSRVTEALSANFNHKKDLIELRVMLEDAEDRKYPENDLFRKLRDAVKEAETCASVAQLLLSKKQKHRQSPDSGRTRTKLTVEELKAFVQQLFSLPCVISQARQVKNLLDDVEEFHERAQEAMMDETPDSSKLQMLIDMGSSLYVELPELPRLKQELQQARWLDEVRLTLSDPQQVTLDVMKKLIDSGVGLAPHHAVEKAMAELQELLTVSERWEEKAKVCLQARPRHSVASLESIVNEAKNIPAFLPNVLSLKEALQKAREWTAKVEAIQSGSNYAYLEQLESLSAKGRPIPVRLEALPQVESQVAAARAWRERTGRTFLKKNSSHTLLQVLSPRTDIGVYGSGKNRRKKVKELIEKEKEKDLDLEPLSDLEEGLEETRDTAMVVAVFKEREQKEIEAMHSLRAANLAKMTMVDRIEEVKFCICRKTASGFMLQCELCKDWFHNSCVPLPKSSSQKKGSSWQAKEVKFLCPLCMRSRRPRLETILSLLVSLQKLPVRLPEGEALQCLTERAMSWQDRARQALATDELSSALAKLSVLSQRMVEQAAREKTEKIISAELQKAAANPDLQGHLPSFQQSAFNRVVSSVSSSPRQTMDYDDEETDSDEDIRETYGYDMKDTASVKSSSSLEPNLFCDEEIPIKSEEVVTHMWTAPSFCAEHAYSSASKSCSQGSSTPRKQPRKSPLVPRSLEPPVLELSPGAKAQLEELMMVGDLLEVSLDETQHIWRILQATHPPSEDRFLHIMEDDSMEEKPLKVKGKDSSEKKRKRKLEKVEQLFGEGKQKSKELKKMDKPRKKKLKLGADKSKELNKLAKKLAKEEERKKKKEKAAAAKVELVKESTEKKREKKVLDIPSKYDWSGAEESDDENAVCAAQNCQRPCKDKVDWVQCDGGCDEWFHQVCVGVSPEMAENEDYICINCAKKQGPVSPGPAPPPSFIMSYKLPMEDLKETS
Protocol: On day 0, 7000 cells per well were plated on a 96-well clear bottom CellCarrier plate (PerkinElmer, UK). The next day the cells were transfected with Lipofectamine 3000 (ThermoFisher Scientific, UK) following the manufacturer’s instructions. Briefly, 0.1 µg of plasmid DNA (encoding for the respective demethylase) and 0.15 µL of Lipofectamine 3000 were diluted in separate tubes containing 5 µL OptiMEM. 0.15 µL of P3000 was added to the tube with the DNA. The two solutions were then mixed gently and allowed to incubate for 5 min at room temperature. Next, the DNA-lipid complex was added to the cells for 4 h at 37 °C and 5% CO2. Compound dilutions were made in a 96-well PCR plate (Starlab, UK). The culture medium was supplemented with 0.4% DMSO so that the solvent concentration was maintained throughout. Compounds were serially diluted at a 1:2 or 1:3 dilution ratio. Next, the cell culture plate was removed from the incubator and the medium was gently aspirated and replaced with the fresh medium containing diluted compounds.

[1] = tested on: endogenous KDMs (H3K4me3 mark); assay: Endogenous IF assay, H3K4me3 in nontransfected HeLa cells; assay type: cell-based, human; settings: 72 h, IF staining
Protocol: The experimental set-up was similar to the 24-h assay except for the following modifications. Cells were cultured in OptiMEM (LifeTechnologies, UK) and supplemented with 0.5% foetal calf serum (FCS) (Gibco, UK) and 1% L-glutaMAX (Gibco, UK). HeLa cells were seeded at a density of 800 cells per well on day 0. The next day, a compound dilution plate (diluted in OptiMEM with supplements) was made and the medium from the day before replaced. The cells were incubated for 72 h at 37 °C and 5% CO2. After fixation, the immunofluorescence protocol was similar as the 24-h assay with the omission of the FLAG-tag antibodies (Table 2).

Row | Compound | IC50 (KDM4B) [µM] | KDM5A, in cells, EC50 by IF assay (head: IC50) (KDM5A) | EC50 ([1]; read-out: EC50, endogenous H3K4me3 levels) [µM] | EC50 (KDM5A) [µM] | EC50, endogenous H3K4me3 levels [1]
1 | CPI-455 | 44 | – | – | – | –
2 | O=c1[nH]cnc2c(-n3cc(CCN4CCC(c5cccc(Cl)c5)CC4)cn3)cccc12 [CCT366293, 8-(4-(2-(4-(3-Chlorophenyl)piperidin-1-yl)ethyl)-1H-pyrazol-1-yl)quinazolin-4(3H)-one] | > 10 | – | – | – | –
3 | CCN(CCN(C)C)C(=O)CNCc1cc(C(=O)O)ccn1 [KDOAM-20] | 0.099 | little inhibition | ~50 | – | –
4 | CCN(CCN(C)C)C(=O)CNCc1cncc(C(N)=O)c1 [KDOAM-32] | – | – | – | > 100 | no inhibition observed
5 | CCOC(=O)c1ccnc(CNCC(=O)N(CC)CCN(C)C)c1 [KDOAM-21] | 2.5 | – | – | 4.8 | sub-μM potency
